Earlier results in US20150283066A1, “VAGINAL DANAZOL COMBINED WITH NON STEROIDAL ANTI INFLAMMATORY DRUGS (NSAIDS) COMPOSITIONS” (MEDIGLOBE LTD, priority 2011, published 2015).

Settings: literature (University of Helsinki); stated jointly for NSAIDs and tranexamic acid

## NC[C@H]1CC[C@H](C(=O)O)CC1 [tranexamic acid]
  reduction of menstrual blood loss: 20-60%
